Patent US4001325A, “α-Chloroacetanilide selective herbicides” (Diamond Shamrock Corporation, priority 1973, dated 1977)

Assays:
corn [1] = assay: Example 17 damage to corn crop; type: in vivo; conditions: 1 lb/A
Source text: (§1) This example illustrates the selective herbicidal activity of two of the presently preferred compounds of this invention against various weed species in a corn crop.
(§2) Plots of light sandy soil, cleared of all weeds, are uniformly treated with aqueous dispersions prepared from an emulsifiable concentrate containing 2- 4 pounds of active ingredient per gallon. Diluted aqueous dispersions are applied as surface treatments at 2.0, 1.0, 0.5, and 0.25 pound of active ingredient per acre (lb/A).
(§3) The treated test plots are sown to corn and with seeds of the following weed species:
(§4) Three to four weeks after planting, the degree of damage to both the corn stands and the weed plants is assessed from a rating of 0% (no injury) to 100% (complete destruction).

Johnsongrass = assay: Example 17 selective herbicidal activity in corn crop, weed kill; type: in vivo; conditions: Sorghum halepense, 3-4 weeks after planting
Source text: as §1, §2, §3, §4

Fall Panicum = assay: as above; type: in vivo; conditions: Panicum dichotomiflorum, 3-4 weeks after planting
Source text: as §1, §2, §3, §4

Velvetleaf = assay: as above; type: in vivo; conditions: Abutilon theophrasti, 3-4 weeks after planting
Source text: as §1, §2, §3, §4

Prickly Sida = assay: Field preemergence test, weed control; type: in vivo; conditions: 3-4 weeks after planting
Source text: Test plots of fertilized, light sandy soil containing 0.7% organic matter are sprayed uniformly with aqueous suspensions prepared from emulsifiable concentrates containing 12%, by weight, of the test chemicals diluted to provide dosage rates of the test compounds corresponding to 2.0, 1.0, 0.5, and 0.25 pound per acre (lb/A). The plots are then sown with seeds of the following crop plants: sweet corn, cotton (Coker 413) and soybeans, var. Davis. Seeds of the following weed plants are planted: redroot pigweed, prickly sida, common lambsquarter, goosegrass and giant foxtail.
Three to four weeks after planting, percent control (plant kill) of the test plants is estimated, from a rating of 0 which denotes no injury to the plant up to 100 which denotes complete destruction. The herbicidal action of the test compounds obtained on the weed species is as follows: […]

Soybeans = assay: Example 18 phytotoxic effects on crop stands in different soils; type: in vivo, soybean
Method: (§5) To further illustrate the herbicidal activity of compounds of this invention in different types of soil as would be encountered in different crop growing localities, a preemergence herbicide test is conducted generally as outlined previously herein. Two light sandy soils are employed containing 0.7% and 1.8% organic matter (O.M.), respectively, along with two loam-type, heavier soils containing either 2.0% or 5-5.5% organic matter (O.M.).
(§6) The test plots are all sprayed uniformly with formulations of the test compounds providing 2.0, 1.0, 0.5, and 0.25 pound of active chemical per acre (lb/A).
(§7) Prior to treatment, the soil plots are sown to field corn, soybean, and grain sorghum crops and seeds of barnyard-grass and yellow foxtail.
(§8) Three weeks after planting, the percent control of plant growth is rated from 0% (no injury) to 100% (total destruction). The results obtained are as follows:
(§9) Phytotoxic effects on the crop stands are similarly rated with the following results: […]

Barnyardgrass = assay: Example 18 preemergence herbicide test in different soils, % control; type: in vivo, barnyard-grass; conditions: three weeks
Method: as §5, §6, §7
Three weeks after planting, the percent control of plant growth is rated from 0% (no injury) to 100% (total destruction).

Corn [2] = assay: Example 18 phytotoxic effects on crop stands in different soils; type: in vivo, field corn
Method: as §5, §6, §7, §8, §9

Morningglory = assay: Example 17 selective herbicidal activity in corn crop, weed kill; type: in vivo, Ipomoea sp.; conditions: Ipomoea, 3-4 weeks after planting
Source text: as §1, §2, §3, §4

Sorghum = assay: Example 18 phytotoxic effects on crop stands in different soils; type: in vivo, grain sorghum
Method: as §5, §6, §7, §8, §9

[3] = 0.5 lb/A, Heavy Soil 5-5.5% O.M.
[4] = 0.5 lb/A, Medium Soil 2.0% O.M.
[5] = 1.0 lb/A, Heavy Soil 5-5.5% O.M.
[6] = 1.0 lb/A, Medium Soil 2.0% O.M.
[7] = 2.0 lb/A, Heavy Soil 5-5.5% O.M.
[8] = 2.0 lb/A, Medium Soil 2.0% O.M.

C#CCN(C(=O)CCl)c1c(C)cccc1CC [Example 15, 2-Chloro-2'-methyl-6'-ethyl-N-propargylacetanilide]
injury to the corn (corn [1]): no injury
mortality at 280.212 g/ha (Johnsongrass; 0.25 lb/A): 0%
mortality at 560.425 g/ha (Johnsongrass; 0.5 lb/A): 73%
mortality at 1120.85 g/ha (Johnsongrass; 1.0 lb/A): 100%
mortality at 2241.7 g/ha (Johnsongrass; 2.0 lb/A): 100%
mortality at 280.212 g/ha (Fall Panicum; 0.25 lb/A): 78%
mortality at 560.425 g/ha (Fall Panicum; 0.5 lb/A): 96%
mortality at 1120.85 g/ha (Fall Panicum; 1.0 lb/A): 97%
mortality at 2241.7 g/ha (Fall Panicum; 2.0 lb/A): 100%
mortality at 280.212 g/ha (Velvetleaf; 0.25 lb/A): 0%
mortality at 560.425 g/ha (Velvetleaf; 0.5 lb/A): 27%
mortality at 1120.85 g/ha (Velvetleaf; 1.0 lb/A): 37%
mortality at 2241.7 g/ha (Velvetleaf; 2.0 lb/A): 80%
% Weed Control, Prickly Sida (Prickly Sida; 0.25 lb/A): 0%
% Weed Control, Prickly Sida (Prickly Sida; 0.5 lb/A): 55%
% Weed Control, Prickly Sida (Prickly Sida; 1.0 lb/A): 93%
% Weed Control, Prickly Sida (Prickly Sida; 2.0 lb/A): 97%
% Phytotoxicity, Soybeans (Soybeans; [3]): 0%
% Phytotoxicity, Soybeans (Soybeans; [4]): 0%
% Phytotoxicity, Soybeans (Soybeans; 0.5 lb/A, Sand 0.7% O.M.): 0%
% Phytotoxicity, Soybeans (Soybeans; 0.5 lb/A, Sand 1.8% O.M.): 0%
% Phytotoxicity, Soybeans (Soybeans; [5]): 0%
% Phytotoxicity, Soybeans (Soybeans; [6]): 0%
% Phytotoxicity, Soybeans (Soybeans; 1.0 lb/A, Sand 0.7% O.M.): 0%
% Phytotoxicity, Soybeans (Soybeans; 1.0 lb/A, Sand 1.8% O.M.): 0%
% Phytotoxicity, Soybeans (Soybeans; [7]): 0%
% Phytotoxicity, Soybeans (Soybeans; [8]): 0%
% Phytotoxicity, Soybeans (Soybeans; 2.0 lb/A, Sand 0.7% O.M.): 0%
% Phytotoxicity, Soybeans (Soybeans; 2.0 lb/A, Sand 1.8% O.M.): 0%
% Control, Barnyardgrass (Barnyardgrass; [3]): 98%
% Control, Barnyardgrass (Barnyardgrass; [4]): 100%
% Control, Barnyardgrass (Barnyardgrass; 0.5 lb/A, Sand 0.7% O.M.): 75%
% Control, Barnyardgrass (Barnyardgrass; 0.5 lb/A, Sand 1.8% O.M.): 50%
% Control, Barnyardgrass (Barnyardgrass; [5]): 100%
% Control, Barnyardgrass (Barnyardgrass; [6]): 100%
% Control, Barnyardgrass (Barnyardgrass; 1.0 lb/A, Sand 0.7% O.M.): 99%
% Control, Barnyardgrass (Barnyardgrass; 1.0 lb/A, Sand 1.8% O.M.): 90%
% Control, Barnyardgrass (Barnyardgrass; [7]): 100%
% Control, Barnyardgrass (Barnyardgrass; [8]): 100%
% Control, Barnyardgrass (Barnyardgrass; 2.0 lb/A, Sand 0.7% O.M.): 99%
% Control, Barnyardgrass (Barnyardgrass; 2.0 lb/A, Sand 1.8% O.M.): 99%
% Phytotoxicity, Corn (Corn [2]; [3]): 0%
% Phytotoxicity, Corn (Corn [2]; [4]): 0%
% Phytotoxicity, Corn (Corn [2]; 0.5 lb/A, Sand 0.7% O.M.): 0%
% Phytotoxicity, Corn (Corn [2]; 0.5 lb/A, Sand 1.8% O.M.): 0%
% Phytotoxicity, Corn (Corn [2]; [5]): 0%
% Phytotoxicity, Corn (Corn [2]; [6]): 10%
% Phytotoxicity, Corn (Corn [2]; 1.0 lb/A, Sand 0.7% O.M.): 0%
% Phytotoxicity, Corn (Corn [2]; 1.0 lb/A, Sand 1.8% O.M.): 0%
% Phytotoxicity, Corn (Corn [2]; [7]): 10%
% Phytotoxicity, Corn (Corn [2]; [8]): 55%
% Phytotoxicity, Corn (Corn [2]; 2.0 lb/A, Sand 0.7% O.M.): 10%
% Phytotoxicity, Corn (Corn [2]; 2.0 lb/A, Sand 1.8% O.M.): 0%
mortality at 280.212 g/ha (Morningglory; 0.25 lb/A): 0%
mortality at 560.425 g/ha (Morningglory; 0.5 lb/A): 0%
mortality at 1120.85 g/ha (Morningglory; 1.0 lb/A): 0%
mortality at 2241.7 g/ha (Morningglory; 2.0 lb/A): 6%
% Phytotoxicity, Sorghum (Sorghum; [3]): 45%
% Phytotoxicity, Sorghum (Sorghum; [4]): 60%
% Phytotoxicity, Sorghum (Sorghum; 0.5 lb/A, Sand 0.7% O.M.): 0%
% Phytotoxicity, Sorghum (Sorghum; 0.5 lb/A, Sand 1.8% O.M.): 20%
% Phytotoxicity, Sorghum (Sorghum; [5]): 90%
% Phytotoxicity, Sorghum (Sorghum; [6]): 100%
% Phytotoxicity, Sorghum (Sorghum; 1.0 lb/A, Sand 0.7% O.M.): 15%
% Phytotoxicity, Sorghum (Sorghum; 1.0 lb/A, Sand 1.8% O.M.): 65%
% Phytotoxicity, Sorghum (Sorghum; [7]): 99%
% Phytotoxicity, Sorghum (Sorghum; [8]): 100%
% Phytotoxicity, Sorghum (Sorghum; 2.0 lb/A, Sand 0.7% O.M.): 50%
% Phytotoxicity, Sorghum (Sorghum; 2.0 lb/A, Sand 1.8% O.M.): 90%
